Laboratory results taken from article PMC5620609 (Pharmaceuticals, 2017).
Blank lines part the entries; values can stand above or below the molecule they belong to.

Tests used:
[1] = system: human colon cancer cell line HCT-116; assay: In vitro growth inhibition (CellTiter-Glo), HCT-116; assay type: cell-based; details: HCT 116 TP53(-/-), read-out: GI50 (concentration of drug that inhibited 50% of cell growth), 72 h exposure
Protocol: Cells were grown in an appropriate medium for the cell line of interest; 96 well plates of each cell line were seeded with 5000 cells per well and left overnight. Drug exposed cells were incubated at 37 °C for 72 h. At the end of the 72 h exposure period, plates were removed for the CellTiter-Glo® assay. Luminescence was recorded on a Synergy 4.0. Assays were performed in triplicate.

[2] = system: total DNMT; assay: Total DNMT inhibition, colorimetric assay in HCT-116 cells; assay type: cell-based, human; details: 24 h
Protocol: Total DNMT activity was measured in the colon cancer cell line HCT-116. The assay was performed using the EpiQuick^TM DNA Methyltransferase Activity/Inhibition Assay Kit (Epigentek, Brooklyn, NY, USA). […] Assays were performed three times in triplicate.

[3] = molecular target: T1, RNR (Homo sapiens, UniProt P23921); assay: RNR inhibition whole cell assay (HPLC of nucleotides from HeLa cell extracts); assay type: cell-based; details: 50 µM, 16 h
T1 construct: endogenous in cells; host or cells: HeLa
T1 sequence (P23921 1-792): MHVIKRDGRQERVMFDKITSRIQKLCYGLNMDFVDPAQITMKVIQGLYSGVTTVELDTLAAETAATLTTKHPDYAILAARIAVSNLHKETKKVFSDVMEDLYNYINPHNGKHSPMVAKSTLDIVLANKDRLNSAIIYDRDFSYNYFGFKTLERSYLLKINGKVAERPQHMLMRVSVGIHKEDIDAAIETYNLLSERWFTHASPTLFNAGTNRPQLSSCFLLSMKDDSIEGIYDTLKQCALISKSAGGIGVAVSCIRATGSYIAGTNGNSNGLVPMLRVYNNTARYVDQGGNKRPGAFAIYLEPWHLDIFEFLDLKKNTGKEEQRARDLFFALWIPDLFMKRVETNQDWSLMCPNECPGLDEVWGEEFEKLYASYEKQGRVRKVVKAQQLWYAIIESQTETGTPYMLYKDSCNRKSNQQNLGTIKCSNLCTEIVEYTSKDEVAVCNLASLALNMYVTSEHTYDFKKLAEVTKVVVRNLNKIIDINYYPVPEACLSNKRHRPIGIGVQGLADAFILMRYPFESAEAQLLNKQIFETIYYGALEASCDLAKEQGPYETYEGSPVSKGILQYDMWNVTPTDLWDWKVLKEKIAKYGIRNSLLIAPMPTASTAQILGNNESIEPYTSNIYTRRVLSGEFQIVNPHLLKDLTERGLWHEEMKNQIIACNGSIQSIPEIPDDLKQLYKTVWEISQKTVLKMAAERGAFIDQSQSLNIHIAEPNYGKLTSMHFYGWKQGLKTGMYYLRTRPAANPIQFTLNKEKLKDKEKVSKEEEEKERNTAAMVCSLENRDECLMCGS
T1 sequence (P31350 1-389 partner): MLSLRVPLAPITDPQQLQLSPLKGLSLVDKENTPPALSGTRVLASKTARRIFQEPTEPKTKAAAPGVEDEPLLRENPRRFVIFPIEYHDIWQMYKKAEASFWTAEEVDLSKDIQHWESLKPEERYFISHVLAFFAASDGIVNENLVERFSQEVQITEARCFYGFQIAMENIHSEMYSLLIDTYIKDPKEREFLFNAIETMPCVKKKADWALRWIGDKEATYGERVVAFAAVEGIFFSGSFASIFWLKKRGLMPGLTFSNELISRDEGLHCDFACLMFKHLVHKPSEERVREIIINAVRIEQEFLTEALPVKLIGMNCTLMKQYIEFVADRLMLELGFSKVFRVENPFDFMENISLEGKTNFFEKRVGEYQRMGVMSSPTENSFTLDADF
Excerpt: Gemcitabine was used as a positive control.
The method used to extract and quantitate nucleotides followed previously reported procedures.

[4] = reported for decitabine; cited from earlier work
[5] = in vivo; details: mouse, iv, 5 mg/kg
Protocol: Three mice were placed in a dose group on the first day of treatment (Day 1). […] Animals were observed daily for mortality and moribundity. Body weights were measured daily starting on day 1.

- GI50 [1]: 620 nM
Compound: Nc1ncn([C@@H]2O[C@H](CO)[C@@H](O)[C@H]2O)c(=O)n1 [5-azacytidine]
- inhibition of total DNMT ([2]; 1 µM, mean of 3 experiments): 19.2%
- inhibition of total DNMT ([2]; 10 µM): 48.6%

- ADP concentration [3]: 15,639
- ATP concentration [3]: 26,296
- CTP concentration [3]: 1297
- GTP concentration [3]: 2036
- UTP concentration [3]: 4801
- dATP, peak area [3]: 0 AU
- dGDP, peak area [3]: 7.95 AU
- dTDP, peak area [3]: 43.4 AU
- dUTP, peak area [3]: 5.3 AU
Compound: Nc1ccn([C@@H]2O[C@H](CO)[C@@H](O)C2(F)F)c(=O)n1 [Gemcitabine, gemcitabine, reference compound]

Compound: Nc1ncn([C@H]2C[C@H](O)[C@@H](CO)O2)c(=O)n1 [decitabine, 5-aza-2′-deoxycytidine]
- half-life [4]: 30 min
- MTD at 3 weeks [5]: < 5 mg/kg
